{"source": "patent US20130338130A1", "about": "(priority 2009, published 2013)", "key": {"[1]": {"test_system": "ATCC strain 43300 Staphylococcus aureus", "experiment": "MRSA survival in MSM, DMSO and oxacillin, 48 hours (Example 2)", "method": "All concentrations were plated out to the 10^−7 dilutions to ascertain cfu/ml.\nMaterial was calculated on a 10 ml volume. […] Sterile DMSO was added to appropriate tubes. Sterile oxacillin was added to appropriate tubes at 300 microliters from a 30 mg/10 ml concentration giving it a final concentration of 6 μg/ml. Control conditions were Lactose Broth inoculated with ATCC strain 43300 Staphylococcus aureus with and without 6 μg/ml oxacillin, as well as uninoculated negative controls to show no signs of contamination.\nAppropriate tubes were inoculated at a dilution of ATCC strain 43300 Staphylococcus aureus giving a final concentration of colony forming units of 3.15×10^7/ml (Log=7.49). The tubes were incubated at 25° C. and mixed periodically. Plating was done at 48 hours. […] They were serial diluted down to 10^−7 with 1 ml placed in a sterile petri dish at each dilution point. Then 20 mls of TSA was added to each dilution and swirled and allowed to solidify. All dilutions were placed in a 35° C. incubator for 24 hours. Plates were counted and colony counts changed into log format. A positive and negative control was ascertained."}, "[2]": {"test_system": "ATCC strain 43300 Staphylococcus aureus", "experiment": "MRSA survival in MSM and oxacillin, simulated course of treatment (Example 3)", "details": "for survival (Log cfu/ml): 6 μg/ml oxacillin added daily + MSM (% in label)", "method": "After 24 hours, another 6 μg/ml oxacillin was added to the incubations, bringing the total amount of oxacillin added to 12 μg/ml. […] This experimental paradigm simulates the repeated application of antibiotic that a subject would receive over a course of treatment.\nUSP<51> Antimicrobial Effectiveness protocol was used as the template experimental paradigm. […] All concentrations were plated out to the 10^−7 dilutions to ascertain cfu/ml. […] This concentration is the industry standard for determining MRSA resistance in clinical applications. An additional 6 μg/ml oxacillin was added daily.\nMaterial was calculated on a 10 ml volume. Sterile oxacillin was added to each experimental condition daily at 300 μl from a 30 mg/10 ml concentration giving it a final concentration of 6 μg/ml.\nAll tubes were inoculated at a dilution of MRSA giving a final concentration of colony forming units of 9.14×10^5/ml (Log=5.96). The tubes were incubated at 25° C. and mixed periodically. Plating was done at 48 hours and 7 days. […] These were serial diluted down to 10^−7 with 1 ml placed in a sterile petri dish at each dilution point. 20 mls of TSA was added to each dilution and swirled and allowed to solidify. All dilutions were placed in a 35° C. incubator for 24 hours. Plates were counted and colony counts changed into log format. A positive and negative control was ascertained."}, "[3]": {"test_system": "ATCC strain 43300 Staphylococcus aureus", "experiment": "MRSA survival in MSM and 6 μg/ml oxacillin or methicillin, 24, 48, 120 hours (Example 4)", "method": "The growth periods tested were 24 hours, 48 hours and 5 days.\nUSP<51> Antimicrobial Effectiveness protocol was used as the template experimental paradigm. […] All concentrations were plated out to the 10^−7 dilutions to ascertain cfu/ml.\nMaterial was calculated on a 10 ml volume. Sterile oxacillin or methicillin was added to each experimental condition daily at 300 μl from a 30 mg/10 ml concentration giving it an initial final concentration of 6 μg/ml.\nAll tubes were inoculated with a dilution of MRSA giving a final level of colony forming units of 2.13×10^6/ml (Log=6.3). The tubes were incubated at 25° C. and mixed periodically. Plating was done at 24 hours, 48 hours and 5 days. Each condition was plated by diluting 1 ml of growth material into 9 ml of MLB diluent broth. This mixture was serial diluted down to 10^−7, and 1 ml placed in a sterile petri dish at each dilution point. 20 mls of TSA was added to each dilution, swirled and allowed to solidify. All dilutions were placed in a 35° C. incubator for 24 hours. Bacterial colonies on each plate were counted and colony counts changed into log format. A positive and negative control was ascertained."}, "[4]": {"details": "6 μg/ml methicillin + MSM (initial % in label), 48 hours, listed as 5% MSM"}, "[5]": {"details": "6 μg/ml methicillin + MSM (initial % in label), 48 hours, listed as 16% MSM"}}, "data": [{"smiles": "CS(C)(=O)=O", "note": "[MSM, Methylsulfonylmethane]", "values": [{"measurement": "log reduction in cfu/ml", "setting": "[1]; MA condition (6 μg/ml oxacillin + MSM)", "result": 2.0, "unit": "log"}, {"measurement": "maximum log reduction in cfu/ml", "setting": "[1]; MA condition, 10-16% MSM", "result": 2.9, "unit": "log"}, {"measurement": "log reduction in cfu/ml", "setting": "[1]; MDA condition (6 μg/ml oxacillin + MSM + 1% DMSO), listed as 9% MSM", "result": 1.6, "unit": "log"}, {"measurement": "log reduction in cfu/ml", "setting": "[1]; MDA condition (6 μg/ml oxacillin + MSM + 1% DMSO), listed as 10-16% MSM", "result": 2.0, "unit": "log"}, {"measurement": "survival (Log cfu/ml)", "setting": "[2]; 48 hours, inoculum Log=5.96, listed as 5% MSM", "result": 7.0, "unit": "Log cfu/ml"}, {"measurement": "survival (Log cfu/ml)", "setting": "[2]; 48 hours, inoculum Log=5.96, listed as 8% MSM", "result": 4.0, "unit": "Log cfu/ml"}, {"measurement": "survival (Log cfu/ml)", "setting": "[2]; 48 hours, inoculum Log=5.96, listed as 10% MSM", "result": 4.6, "unit": "Log cfu/ml"}, {"measurement": "survival (Log cfu/ml)", "setting": "[2]; 48 hours, inoculum Log=5.96, listed as 12% MSM", "result": 3.8, "unit": "Log cfu/ml"}, {"measurement": "survival (Log cfu/ml)", "setting": "[2]; 48 hours, inoculum Log=5.96, listed as 13% MSM", "result": 3.8, "unit": "Log cfu/ml"}, {"measurement": "survival (Log cfu/ml)", "setting": "[2]; 48 hours, inoculum Log=5.96, listed as 14% MSM", "result": 4.0, "unit": "Log cfu/ml"}, {"measurement": "survival (Log cfu/ml)", "setting": "[2]; 48 hours, inoculum Log=5.96, listed as 15% MSM", "result": 4.1, "unit": "Log cfu/ml"}, {"measurement": "survival (Log cfu/ml)", "setting": "[2]; 48 hours, inoculum Log=5.96, listed as 16% MSM", "result": 5.3, "unit": "Log cfu/ml"}, {"measurement": "survival (Log cfu/ml)", "setting": "[2]; 7 days, listed as 5% MSM", "result": 7.9, "unit": "Log cfu/ml"}, {"measurement": "survival (Log cfu/ml)", "setting": "[2]; 7 days, listed as 8% MSM", "result": 7.6, "unit": "Log cfu/ml"}, {"measurement": "survival (Log cfu/ml)", "setting": "[2]; 7 days, listed as 10% MSM", "result": 7.2, "unit": "Log cfu/ml"}, {"measurement": "survival (Log cfu/ml)", "setting": "[2]; 7 days, listed as 12% MSM", "result": 7.1, "unit": "Log cfu/ml"}, {"measurement": "survival (Log cfu/ml)", "setting": "[2]; 7 days, listed as 13% MSM", "result": 7.2, "unit": "Log cfu/ml"}, {"measurement": "survival (Log cfu/ml)", "setting": "[2]; 7 days, listed as 14% MSM", "result": 7.0, "unit": "Log cfu/ml"}, {"measurement": "survival (Log cfu/ml)", "setting": "[2]; 7 days, listed as 15% MSM", "result": 6.9, "unit": "Log cfu/ml"}, {"measurement": "survival (Log cfu/ml)", "setting": "[2]; 7 days, listed as 16% MSM", "result": 1.0, "unit": "Log cfu/ml"}, {"measurement": "surviving bacteria", "setting": "[2]; 6 μg/ml oxacillin added each day, day 7", "result": "no surviving bacteria"}, {"measurement": "survival (Log cfu/ml)", "setting": "[3]; 6 μg/ml methicillin + MSM (initial % in label), 48 Hours, listed as 8% MSM", "result": 3.60, "unit": "Log cfu/ml"}, {"measurement": "survival (Log cfu/ml)", "setting": "[3]; 6 μg/ml methicillin + MSM (initial % in label), 48 Hours, listed as 10% MSM", "result": 3.70, "unit": "Log cfu/ml"}, {"measurement": "survival (Log cfu/ml)", "setting": "[3]; 6 μg/ml methicillin + MSM (initial % in label), 48 Hours, listed as 12% MSM", "result": 3.70, "unit": "Log cfu/ml"}, {"measurement": "survival (Log cfu/ml)", "setting": "[3]; 6 μg/ml methicillin + MSM (initial % in label), 48 Hours, listed as 13% MSM", "result": 3.90, "unit": "Log cfu/ml"}, {"measurement": "survival (Log cfu/ml)", "setting": "[3]; 6 μg/ml methicillin + MSM (initial % in label), 48 Hours, listed as 14% MSM", "result": 3.98, "unit": "Log cfu/ml"}, {"measurement": "survival (Log cfu/ml)", "setting": "[3]; 6 μg/ml methicillin + MSM (initial % in label), 48 Hours, listed as 15% MSM", "result": 4.00, "unit": "Log cfu/ml"}, {"measurement": "survival (Log cfu/ml)", "setting": "[3]; 6 μg/ml methicillin + MSM (initial % in label), 24 hours, 3.5% MSM and antibiotic added daily, inoculum Log=6.3", "result": 4.30, "unit": "Log cfu/ml"}, {"measurement": "survival (Log cfu/ml)", "setting": "[3]; 6 μg/ml methicillin + MSM (initial % in label), 24 hours, 3.5% MSM and antibiotic added daily, inoculum Log=6.3, listed as 8% MSM", "result": 4.50, "unit": "Log cfu/ml"}, {"measurement": "survival (Log cfu/ml)", "setting": "[3]; 6 μg/ml methicillin + MSM (initial % in label), 24 hours, 3.5% MSM and antibiotic added daily, inoculum Log=6.3, listed as 10% MSM", "result": 4.40, "unit": "Log cfu/ml"}, {"measurement": "survival (Log cfu/ml)", "setting": "[3]; 6 μg/ml methicillin + MSM (initial % in label), 24 hours, 3.5% MSM and antibiotic added daily, inoculum Log=6.3, listed as 12% MSM", "result": 4.60, "unit": "Log cfu/ml"}, {"measurement": "survival (Log cfu/ml)", "setting": "[3]; 6 μg/ml methicillin + MSM (initial % in label), 24 hours, 3.5% MSM and antibiotic added daily, inoculum Log=6.3, listed as 13% MSM", "result": 4.90, "unit": "Log cfu/ml"}, {"measurement": "survival (Log cfu/ml)", "setting": "[3]; 6 μg/ml methicillin + MSM (initial % in label), 24 hours, 3.5% MSM and antibiotic added daily, inoculum Log=6.3, listed as 14% MSM", "result": 4.90, "unit": "Log cfu/ml"}, {"measurement": "survival (Log cfu/ml)", "setting": "[3]; 6 μg/ml methicillin + MSM (initial % in label), 24 hours, 3.5% MSM and antibiotic added daily, inoculum Log=6.3, listed as 15% MSM", "result": 5.00, "unit": "Log cfu/ml"}, {"measurement": "survival (Log cfu/ml)", "setting": "[3]; 6 μg/ml methicillin + MSM (initial % in label), 24 hours, 3.5% MSM and antibiotic added daily, inoculum Log=6.3, listed as 16% MSM", "result": 5.00, "unit": "Log cfu/ml"}, {"measurement": "average log reduction in cfu/ml", "setting": "[3]; [4]", "result": 2.7, "unit": "log"}, {"measurement": "survival (Log cfu/ml)", "setting": "[3]; [4]", "result": 3.60, "unit": "Log cfu/ml"}, {"measurement": "average log reduction in cfu/ml", "setting": "[3]; [5]", "result": 2.1, "unit": "log"}, {"measurement": "survival (Log cfu/ml)", "setting": "[3]; [5]", "result": 4.17, "unit": "Log cfu/ml"}, {"measurement": "survival (Log cfu/ml)", "setting": "[3]; 6 μg/ml methicillin + MSM (initial % in label), 120 hours, listed as 5% MSM", "result": "TNTC"}, {"measurement": "survival (Log cfu/ml)", "setting": "[3]; 6 μg/ml methicillin + MSM (initial % in label), 120 hours, listed as 8% MSM", "result": "TNTC"}, {"measurement": "survival (Log cfu/ml)", "setting": "[3]; 6 μg/ml methicillin + MSM (initial % in label), 120 hours, listed as 10% MSM", "result": "TNTC"}, {"measurement": "survival (Log cfu/ml)", "setting": "[3]; 6 μg/ml methicillin + MSM (initial % in label), 120 hours, listed as 12% MSM", "result": 4.20, "unit": "Log cfu/ml"}, {"measurement": "survival (Log cfu/ml)", "setting": "[3]; 6 μg/ml methicillin + MSM (initial % in label), 120 hours, listed as 13% MSM", "result": 2.80, "unit": "Log cfu/ml"}, {"measurement": "survival (Log cfu/ml)", "setting": "[3]; 6 μg/ml methicillin + MSM (initial % in label), 120 hours, listed as 14% MSM", "result": 2.90, "unit": "Log cfu/ml"}, {"measurement": "survival (Log cfu/ml)", "setting": "[3]; 6 μg/ml methicillin + MSM (initial % in label), 120 hours, listed as 15% MSM", "result": 2.80, "unit": "Log cfu/ml"}, {"measurement": "survival (Log cfu/ml)", "setting": "[3]; 6 μg/ml methicillin + MSM (initial % in label), 120 hours, listed as 16% MSM", "result": 2.80, "unit": "Log cfu/ml"}, {"measurement": "Log reduction in cfu/ml", "setting": "[3]; 6 μg/ml methicillin + initial 13-16% MSM, 120 hours", "result": "~3.5", "unit": "log"}, {"measurement": "survival (Log cfu/ml)", "setting": "[3]; 6 μg/ml oxacillin + MSM (initial % in label), 48 Hours, listed as 5% MSM", "result": 5.20, "unit": "Log cfu/ml"}, {"measurement": "survival (Log cfu/ml)", "setting": "[3]; 6 μg/ml oxacillin + MSM (initial % in label), 48 Hours, listed as 10% MSM", "result": 4.20, "unit": "Log cfu/ml"}, {"measurement": "survival (Log cfu/ml)", "setting": "[3]; 6 μg/ml oxacillin + MSM (initial % in label), 48 Hours, listed as 12% MSM", "result": 4.30, "unit": "Log cfu/ml"}, {"measurement": "survival (Log cfu/ml)", "setting": "[3]; 6 μg/ml oxacillin + MSM (initial % in label), 48 Hours, listed as 13% MSM", "result": 4.20, "unit": "Log cfu/ml"}, {"measurement": "survival (Log cfu/ml)", "setting": "[3]; 6 μg/ml oxacillin + MSM (initial % in label), 48 Hours, listed as 14% MSM", "result": 4.40, "unit": "Log cfu/ml"}, {"measurement": "survival (Log cfu/ml)", "setting": "[3]; 6 μg/ml oxacillin + MSM (initial % in label), 48 Hours, listed as 15% MSM", "result": 4.40, "unit": "Log cfu/ml"}, {"measurement": "survival (Log cfu/ml)", "setting": "[3]; 6 μg/ml oxacillin + MSM (initial % in label), 24 hours, listed as 5% MSM", "result": 4.90, "unit": "Log cfu/ml"}, {"measurement": "survival (Log cfu/ml)", "setting": "[3]; 6 μg/ml oxacillin + MSM (initial % in label), 24 hours, listed as 8% MSM", "result": 5.00, "unit": "Log cfu/ml"}, {"measurement": "survival (Log cfu/ml)", "setting": "[3]; 6 μg/ml oxacillin + MSM (initial % in label), 24 hours, listed as 10% MSM", "result": 5.00, "unit": "Log cfu/ml"}, {"measurement": "survival (Log cfu/ml)", "setting": "[3]; 6 μg/ml oxacillin + MSM (initial % in label), 24 hours, listed as 12% MSM", "result": 5.20, "unit": "Log cfu/ml"}, {"measurement": "survival (Log cfu/ml)", "setting": "[3]; 6 μg/ml oxacillin + MSM (initial % in label), 24 hours, listed as 13% MSM", "result": 5.00, "unit": "Log cfu/ml"}, {"measurement": "survival (Log cfu/ml)", "setting": "[3]; 6 μg/ml oxacillin + MSM (initial % in label), 24 hours, listed as 14% MSM", "result": 5.20, "unit": "Log cfu/ml"}, {"measurement": "survival (Log cfu/ml)", "setting": "[3]; 6 μg/ml oxacillin + MSM (initial % in label), 24 hours, listed as 15% MSM", "result": 5.23, "unit": "Log cfu/ml"}, {"measurement": "survival (Log cfu/ml)", "setting": "[3]; 6 μg/ml oxacillin + MSM (initial % in label), 24 hours, listed as 16% MSM", "result": 5.25, "unit": "Log cfu/ml"}, {"measurement": "average log reduction in cfu/ml", "setting": "[3]; 6 μg/ml oxacillin + MSM (initial % in label), 48 hours, listed as 8% MSM", "result": 2.7, "unit": "log"}]}]}
